Data: ChEMBL document CHEMBL4840352 (J Med Chem, 2021)
Active and inactive are the calls of the source. The rule behind the calls is not given here.

Legend:
[1] = test system: Receptor-type tyrosine-protein kinase FLT3 (Homo sapiens), P36888 [UNDEFINED MUTATION]; test: Induction of FLT3-ITD degradation in human MV4-11 cells measured upto 18 hrs by Western blot analysis; assay type: cell-based; conditions: time hrs <=18
[2] = target: Serine/threonine-protein kinase MARK1 (Homo sapiens) (UniProt Q9P0L2); test: Inhibition of MARK1 (unknown origin) at 1000 nM relative to control
[3] = target: Mast/stem cell growth factor receptor Kit (Homo sapiens) (UniProt P10721); test: Inhibition of KIT (unknown origin) at 1000 nM relative to control
[4] = target: Aurora kinase A (Homo sapiens) (UniProt O14965); test: Inhibition of AURORA-A (unknown origin) at 1000 nM relative to control
[5] = target: Serine/threonine-protein kinase 4 (Homo sapiens) (UniProt Q13043); test: Inhibition of MST1 (unknown origin) at 1000 nM relative to control
[6] = target: CDK7/Cyclin H/MNAT1 (Homo sapiens) (UniProt P51946+P50613+P51948); test: Inhibition of CDK7/cyclinH/MAT1 (unknown origin) at 1000 nM relative to control; assay type: protein-complex assay
[7] = target: Glycogen synthase kinase-3 alpha (Homo sapiens) (UniProt P49840); test: Inhibition of GSK3alpha (unknown origin) at 1000 nM relative to control
[8] = target: Receptor tyrosine-protein kinase erbB-2 (Homo sapiens) (UniProt P04626); test: Inhibition of HER2 (unknown origin) at 1000 nM relative to control
[9] = target: ALK tyrosine kinase receptor (Homo sapiens) (UniProt Q9UM73); test: Inhibition of ALK (unknown origin) at 1000 nM relative to control
[10] = target: Tyrosine-protein kinase JAK3 (Homo sapiens) (UniProt P52333); test: Inhibition of JAK3 (unknown origin) at 1000 nM relative to control
[11] = target: Rho-associated protein kinase 1 (Homo sapiens) (UniProt Q13464); test: Inhibition of ROCK1 (unknown origin) at 1000 nM relative to control
[12] = target: Maternal embryonic leucine zipper kinase (Homo sapiens) (UniProt Q14680); test: Inhibition of MELK (unknown origin) at 1000 nM relative to control
[13] = target: Hepatocyte growth factor receptor (Homo sapiens) (UniProt P08581); test: Inhibition of C-MET (unknown origin) at 1000 nM relative to control
[14] = target: Proto-oncogene tyrosine-protein kinase Src (Homo sapiens) (UniProt P12931); test: Inhibition of SRC (unknown origin) at 1000 nM relative to control
MV4-11 [15] = test: Induction of apoptosis in human MV4-11 cells at 10 nM after 48 hrs by Annexin-V/PI staining based flow cytometry; assay type: functional, cell-based
[16] = target: Mitogen-activated protein kinase 1 (Homo sapiens) (UniProt P28482); test: Inhibition of ERK2 (unknown origin) at 1000 nM relative to control
[17] = target: Mitogen-activated protein kinase 8 (Homo sapiens) (UniProt P45983); test: Inhibition of JNK1 (unknown origin) at 1000 nM relative to control
[18] = target: RAC-alpha serine/threonine-protein kinase (Homo sapiens) (UniProt P31749); test: Inhibition of AKT1 (unknown origin) at 1000 nM relative to control
MV4-11 [19] = test: Antiproliferative activity against human MV4-11 cells incubated for 48 hrs by CCK-8 assay; assay type: functional, cell-based; conditions: MV4-11, 48 h
[20] = target: Mitogen-activated protein kinase 1 (Homo sapiens) (UniProt P28482); test: Inhibition of MAPK2 (unknown origin) at 1000 nM relative to control
[21] = target: Casein kinase I isoform alpha-like (Homo sapiens) (UniProt Q8N752); test: Inhibition of CK1A1 (unknown origin) at 1000 nM relative to control
[22] = target: Mitogen-activated protein kinase kinase kinase 14 (Homo sapiens) (UniProt Q99558); test: Inhibition of NIK (unknown origin) at 1000 nM relative to control
[23] = target: Mitogen-activated protein kinase kinase kinase kinase 1 (Homo sapiens) (UniProt Q92918); test: Inhibition of HPK1 (unknown origin) at 1000 nM relative to control
[24] = target: Serine/threonine-protein kinase Chk2 (Homo sapiens) (UniProt O96017); test: Inhibition of CHK2 (unknown origin) at 1000 nM relative to control
[25] = target: Discoidin domain-containing receptor 2 (Homo sapiens) (UniProt Q16832); test: Inhibition of DDR2 (unknown origin) at 1000 nM relative to control
[26] = target: Serine/threonine-protein kinase TBK1 (Homo sapiens) (UniProt Q9UHD2); test: Inhibition of TBK1 (unknown origin) at 1000 nM relative to control
MOLM-13 [27] = test: Antiproliferative activity against human MOLM-13 cells incubated for 48 hrs by CCK-8 assay; assay type: functional, cell-based; conditions: MOLM-13, 48 h
MOLM-13 [28] = test: Induction of apoptosis in human MOLM-13 cells at 10 nM after 48 hrs by Annexin-V/PI staining based flow cytometry; assay type: functional, cell-based

Mitogen-activated protein kinase 1 (Homo sapiens), sequence (P28482 whole entry, canonical isoform): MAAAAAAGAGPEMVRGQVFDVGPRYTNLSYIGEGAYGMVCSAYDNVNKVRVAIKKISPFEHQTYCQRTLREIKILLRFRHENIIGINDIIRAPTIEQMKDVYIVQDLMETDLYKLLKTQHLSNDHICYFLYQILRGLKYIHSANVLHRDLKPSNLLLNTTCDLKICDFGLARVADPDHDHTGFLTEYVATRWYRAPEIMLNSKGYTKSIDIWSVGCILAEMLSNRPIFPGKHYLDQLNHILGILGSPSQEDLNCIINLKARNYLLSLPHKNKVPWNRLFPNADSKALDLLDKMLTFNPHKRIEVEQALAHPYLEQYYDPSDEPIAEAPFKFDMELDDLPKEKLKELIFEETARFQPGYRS
Receptor-type tyrosine-protein kinase FLT3 (Homo sapiens), P36888 [UNDEFINED MUTATION], sequence (P36888 whole entry, looked up, change not shown): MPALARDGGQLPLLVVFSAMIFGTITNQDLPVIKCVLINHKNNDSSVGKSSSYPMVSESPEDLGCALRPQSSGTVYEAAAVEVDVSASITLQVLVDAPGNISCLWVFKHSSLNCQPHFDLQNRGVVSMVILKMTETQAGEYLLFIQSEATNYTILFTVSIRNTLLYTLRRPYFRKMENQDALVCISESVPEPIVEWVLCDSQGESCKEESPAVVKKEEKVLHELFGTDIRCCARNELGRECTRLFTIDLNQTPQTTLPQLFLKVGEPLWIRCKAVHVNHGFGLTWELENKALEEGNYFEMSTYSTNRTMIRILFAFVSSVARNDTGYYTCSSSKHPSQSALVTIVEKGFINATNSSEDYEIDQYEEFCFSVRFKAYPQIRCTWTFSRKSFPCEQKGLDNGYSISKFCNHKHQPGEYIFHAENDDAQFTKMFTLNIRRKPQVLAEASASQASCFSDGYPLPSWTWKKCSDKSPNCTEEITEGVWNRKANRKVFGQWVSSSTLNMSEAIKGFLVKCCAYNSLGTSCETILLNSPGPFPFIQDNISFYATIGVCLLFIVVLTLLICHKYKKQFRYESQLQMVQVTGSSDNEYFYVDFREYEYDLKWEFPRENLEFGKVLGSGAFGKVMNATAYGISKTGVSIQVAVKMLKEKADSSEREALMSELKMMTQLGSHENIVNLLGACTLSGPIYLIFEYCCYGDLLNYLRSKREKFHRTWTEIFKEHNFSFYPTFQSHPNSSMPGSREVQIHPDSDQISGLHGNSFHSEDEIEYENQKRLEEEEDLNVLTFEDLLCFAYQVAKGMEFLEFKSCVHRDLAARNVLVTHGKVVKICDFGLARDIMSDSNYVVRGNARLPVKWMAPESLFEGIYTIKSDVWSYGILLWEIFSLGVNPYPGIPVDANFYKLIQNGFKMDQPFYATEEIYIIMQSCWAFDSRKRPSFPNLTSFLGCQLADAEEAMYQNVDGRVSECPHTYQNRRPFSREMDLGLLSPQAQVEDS
Serine/threonine-protein kinase TBK1 (Homo sapiens), sequence (Q9UHD2 whole entry): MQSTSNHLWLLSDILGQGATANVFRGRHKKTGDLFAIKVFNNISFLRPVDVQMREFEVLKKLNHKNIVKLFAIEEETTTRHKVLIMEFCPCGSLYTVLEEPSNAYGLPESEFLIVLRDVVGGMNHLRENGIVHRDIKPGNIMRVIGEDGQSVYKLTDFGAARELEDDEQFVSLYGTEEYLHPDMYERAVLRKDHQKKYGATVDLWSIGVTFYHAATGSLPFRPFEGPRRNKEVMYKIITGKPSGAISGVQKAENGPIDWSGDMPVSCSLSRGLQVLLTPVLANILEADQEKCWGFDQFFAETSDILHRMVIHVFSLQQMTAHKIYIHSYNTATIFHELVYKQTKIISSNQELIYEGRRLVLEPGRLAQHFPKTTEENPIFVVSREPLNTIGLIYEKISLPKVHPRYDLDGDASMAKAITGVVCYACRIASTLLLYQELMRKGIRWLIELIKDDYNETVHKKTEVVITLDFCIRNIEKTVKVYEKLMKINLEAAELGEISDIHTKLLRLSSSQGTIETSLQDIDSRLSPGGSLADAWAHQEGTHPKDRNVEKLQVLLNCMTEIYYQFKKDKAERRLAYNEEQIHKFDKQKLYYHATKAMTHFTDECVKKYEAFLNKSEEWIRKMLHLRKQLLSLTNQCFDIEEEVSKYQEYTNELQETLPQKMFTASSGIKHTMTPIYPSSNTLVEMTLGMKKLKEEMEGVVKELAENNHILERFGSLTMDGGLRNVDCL
Mast/stem cell growth factor receptor Kit (Homo sapiens), sequence (P10721 whole entry): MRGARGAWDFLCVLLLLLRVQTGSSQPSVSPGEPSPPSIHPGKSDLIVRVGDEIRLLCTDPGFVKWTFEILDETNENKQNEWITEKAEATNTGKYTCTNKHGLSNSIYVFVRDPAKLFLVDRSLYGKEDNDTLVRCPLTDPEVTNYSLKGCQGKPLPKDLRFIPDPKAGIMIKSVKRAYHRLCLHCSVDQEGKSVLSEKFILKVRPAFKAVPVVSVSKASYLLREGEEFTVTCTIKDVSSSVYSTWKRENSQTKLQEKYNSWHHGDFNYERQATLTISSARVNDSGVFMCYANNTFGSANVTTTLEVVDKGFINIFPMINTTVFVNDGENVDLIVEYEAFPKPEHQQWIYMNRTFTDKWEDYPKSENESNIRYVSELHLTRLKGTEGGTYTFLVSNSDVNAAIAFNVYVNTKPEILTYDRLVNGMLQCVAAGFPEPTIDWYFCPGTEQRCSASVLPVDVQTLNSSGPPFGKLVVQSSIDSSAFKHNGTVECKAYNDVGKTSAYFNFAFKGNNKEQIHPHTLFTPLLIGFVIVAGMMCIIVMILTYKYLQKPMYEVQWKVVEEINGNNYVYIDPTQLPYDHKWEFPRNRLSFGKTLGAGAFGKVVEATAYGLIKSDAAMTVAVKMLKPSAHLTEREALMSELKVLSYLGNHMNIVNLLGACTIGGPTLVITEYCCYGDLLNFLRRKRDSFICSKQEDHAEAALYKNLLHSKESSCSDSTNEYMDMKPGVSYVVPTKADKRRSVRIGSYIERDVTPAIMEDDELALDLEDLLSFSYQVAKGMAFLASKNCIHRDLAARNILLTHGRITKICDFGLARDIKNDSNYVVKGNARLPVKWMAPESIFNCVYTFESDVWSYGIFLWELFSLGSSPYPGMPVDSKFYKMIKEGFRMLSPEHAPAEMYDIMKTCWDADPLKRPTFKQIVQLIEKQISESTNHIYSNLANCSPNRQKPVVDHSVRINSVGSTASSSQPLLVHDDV
Receptor tyrosine-protein kinase erbB-2 (Homo sapiens), sequence (P04626 whole entry): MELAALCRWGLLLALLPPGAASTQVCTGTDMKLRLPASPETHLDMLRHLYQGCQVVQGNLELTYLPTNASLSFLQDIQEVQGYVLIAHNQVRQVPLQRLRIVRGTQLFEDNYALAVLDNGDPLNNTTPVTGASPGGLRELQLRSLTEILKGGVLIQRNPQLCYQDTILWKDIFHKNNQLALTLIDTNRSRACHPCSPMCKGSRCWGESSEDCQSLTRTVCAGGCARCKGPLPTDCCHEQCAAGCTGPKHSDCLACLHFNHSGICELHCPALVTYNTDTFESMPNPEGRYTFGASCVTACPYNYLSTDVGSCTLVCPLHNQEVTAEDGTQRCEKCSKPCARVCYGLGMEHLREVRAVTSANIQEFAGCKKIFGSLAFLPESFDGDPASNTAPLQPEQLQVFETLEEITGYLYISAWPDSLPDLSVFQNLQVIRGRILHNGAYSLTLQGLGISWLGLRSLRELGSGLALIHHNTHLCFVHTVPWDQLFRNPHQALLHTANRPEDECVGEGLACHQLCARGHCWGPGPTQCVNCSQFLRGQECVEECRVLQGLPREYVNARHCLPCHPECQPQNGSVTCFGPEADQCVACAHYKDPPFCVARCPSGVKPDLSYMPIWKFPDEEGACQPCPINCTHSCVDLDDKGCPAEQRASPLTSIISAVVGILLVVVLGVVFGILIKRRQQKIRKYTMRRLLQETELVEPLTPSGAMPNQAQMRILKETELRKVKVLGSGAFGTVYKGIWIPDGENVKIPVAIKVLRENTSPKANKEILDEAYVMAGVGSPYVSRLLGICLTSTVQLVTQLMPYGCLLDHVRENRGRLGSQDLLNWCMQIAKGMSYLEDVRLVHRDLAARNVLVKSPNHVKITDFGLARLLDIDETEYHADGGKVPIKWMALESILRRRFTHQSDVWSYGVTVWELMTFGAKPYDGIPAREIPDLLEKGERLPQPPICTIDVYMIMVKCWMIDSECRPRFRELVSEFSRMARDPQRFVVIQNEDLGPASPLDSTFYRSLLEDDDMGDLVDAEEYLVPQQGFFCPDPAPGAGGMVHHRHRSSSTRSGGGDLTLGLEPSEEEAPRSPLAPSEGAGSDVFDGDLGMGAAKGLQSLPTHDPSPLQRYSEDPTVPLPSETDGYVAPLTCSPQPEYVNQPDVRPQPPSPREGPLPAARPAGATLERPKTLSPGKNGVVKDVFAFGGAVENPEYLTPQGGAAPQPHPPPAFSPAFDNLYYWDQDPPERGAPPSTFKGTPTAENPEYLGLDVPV
Serine/threonine-protein kinase 4 (Homo sapiens), sequence (Q13043 whole entry): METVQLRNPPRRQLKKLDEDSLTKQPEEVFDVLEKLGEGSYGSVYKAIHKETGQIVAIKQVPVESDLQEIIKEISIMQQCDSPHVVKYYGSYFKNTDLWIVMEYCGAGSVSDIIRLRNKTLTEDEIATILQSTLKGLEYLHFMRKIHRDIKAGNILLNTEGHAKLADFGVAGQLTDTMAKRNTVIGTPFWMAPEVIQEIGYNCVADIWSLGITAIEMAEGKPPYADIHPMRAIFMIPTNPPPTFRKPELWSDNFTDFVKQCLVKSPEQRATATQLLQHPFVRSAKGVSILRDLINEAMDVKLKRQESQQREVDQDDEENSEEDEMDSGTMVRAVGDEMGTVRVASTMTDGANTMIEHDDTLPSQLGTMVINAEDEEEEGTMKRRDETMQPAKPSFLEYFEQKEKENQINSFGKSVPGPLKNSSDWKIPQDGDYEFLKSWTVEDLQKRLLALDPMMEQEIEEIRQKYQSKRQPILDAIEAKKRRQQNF

In the case of `C[C@@H]1C[C@@H]([C@H](O)CC2CC(=O)NC(=O)C2)C(=O)[C@@H](C)C1`, the Activity [1] is reported as “inactive”.

With `CN1CCN(c2ccc3nc(-c4c(N)c5c(F)cccc5[nH]c4=O)[nH]c3c2)CC1` [DOVITINIB] the inhibition [2] was 57%, the inhibition [3] was 98% and the inhibition [4] was 38%. The inhibition [5] was 82%, the inhibition [6] was 85% and the inhibition [7] was 20%. For the same compound, the inhibition [8] was 37%, the inhibition [9] was 55% and the inhibition [10] was 54%. The inhibition [11] was 23%, the inhibition [12] was 70% and the inhibition [13] was 14%. The inhibition [14] was 79%, the Activity (MV4-11 [15]) was “inactive” and the inhibition [16] was 31%. For the same compound, the inhibition [17] was 33%, the inhibition [18] was 4% and the IC50 (MV4-11 [19]) was 184 nM. The inhibition [20] was 54%, the inhibition [21] was 10% and the inhibition [22] was 2%. For the same compound, the inhibition [23] was 94%, the inhibition [24] was 25% and the inhibition [25] was 38%. The inhibition [26] was 64%, the IC50 (MOLM-13 [27]) was 795 nM and the Activity (MOLM-13 [28]) was “inactive”.
